“And” between values parts separate entries of the source, which are not always exact repeats. Identical values can stand only once. “Also recorded” adds a separate entry of the source.
Key:
[1] = Weight increase in growing male rats, experiment 2 (10 days s.c., with progesterone + estradiol); assay type: in vivo, Male Wistar rats; details: for Weight difference compared to vehicle (Mean±SE) / Weight difference versus E+P control rats (Mean±SE): 10 days, n=9
Protocol: Animals: Male Wistar rats were kept in group cages, with three animals per cage, from delivery and throughout the period of experiments. The individual animals were marked so that they could be identified throughout the experiment duration. The animals weight an average of 152 g upon arrival. A reversed light dark (12:12 h) cycle was used with the dark period onset at 0600 hrs. Altogether fifty-six (56) rats were used in this study (experiment 1+2). The animals were delivered from the breeder Taconic (Denmark). The study protocol was approved by the Regional Ethics Committee of Umea University, Sweden.
Feeding: Standard chow and water were available ad libitum. A reversed 12-h dark-light cycle with lights off at 10.00 am and lights on at 22.00 pm was used. For identification, the rats were marked with a permanent marker on the tail. To avoid the endogenous allopregnanolone fluctuations that are present in the oestrous cycle of female rats, male rats were chosen (Frye et al. 2000). The animals were allowed to acclimatize for at least 3 weeks before start of the experimental sessions. During this period, the rats were repeatedly handled and allowed habituation to the new environment and to all new procedures, to minimize stress during the experiments.
After 14 days of triad housing, handling and injection training of the animals, the animals were treated for 5 days with IV injections in experiment 1 and 10 days with a daily subcutaneous injection of the assigned treatment in experiment 2 (Table 3 and 4). The injections were given at 08.00 every morning. The animals were weighed the day before onset of the treatment and at the last day of injection i.e. on the 5th or 10th day of treatment. Weight was taken at the time of the last injection. […] The results are shown in FIG. 2 (experiment 1) and FIG. 3 (experiment 2), respectively.

[2] = target: T1, human α3β3γ2 GABAA receptor subtype (Homo sapiens, UniProt P18507+P28472+P34903); test: Patch-clamp (Dynaflow) of GABA-mediated current in HEK-293 cells expressing α3β3γ2L GABAA receptor; assay type: cell-based
T1 construct: expressed in transfected cells
T1 sequence (P34903 29-492): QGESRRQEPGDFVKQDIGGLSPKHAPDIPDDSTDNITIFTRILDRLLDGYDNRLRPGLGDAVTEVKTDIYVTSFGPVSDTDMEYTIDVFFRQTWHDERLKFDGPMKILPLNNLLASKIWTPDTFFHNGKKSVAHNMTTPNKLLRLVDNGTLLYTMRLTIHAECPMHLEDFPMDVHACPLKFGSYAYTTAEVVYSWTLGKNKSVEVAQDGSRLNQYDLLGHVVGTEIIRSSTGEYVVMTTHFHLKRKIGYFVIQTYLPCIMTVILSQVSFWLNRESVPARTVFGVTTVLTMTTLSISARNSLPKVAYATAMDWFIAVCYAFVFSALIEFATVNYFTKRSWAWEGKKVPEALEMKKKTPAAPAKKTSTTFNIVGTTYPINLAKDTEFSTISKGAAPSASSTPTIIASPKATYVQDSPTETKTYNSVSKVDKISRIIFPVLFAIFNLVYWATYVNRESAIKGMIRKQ
T1 sequence (P28472 26-473): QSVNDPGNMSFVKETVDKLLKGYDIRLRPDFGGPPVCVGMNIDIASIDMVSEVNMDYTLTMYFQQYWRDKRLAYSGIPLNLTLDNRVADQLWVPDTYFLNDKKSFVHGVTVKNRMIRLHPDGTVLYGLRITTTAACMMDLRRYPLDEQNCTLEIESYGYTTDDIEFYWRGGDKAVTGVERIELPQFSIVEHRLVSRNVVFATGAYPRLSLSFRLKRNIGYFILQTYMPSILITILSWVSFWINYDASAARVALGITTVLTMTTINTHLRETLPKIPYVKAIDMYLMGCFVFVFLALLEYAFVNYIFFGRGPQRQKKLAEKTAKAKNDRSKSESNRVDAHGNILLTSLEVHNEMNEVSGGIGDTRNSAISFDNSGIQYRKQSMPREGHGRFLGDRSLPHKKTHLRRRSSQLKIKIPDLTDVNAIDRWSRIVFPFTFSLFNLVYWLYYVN
T1 sequence (P18507 40-475): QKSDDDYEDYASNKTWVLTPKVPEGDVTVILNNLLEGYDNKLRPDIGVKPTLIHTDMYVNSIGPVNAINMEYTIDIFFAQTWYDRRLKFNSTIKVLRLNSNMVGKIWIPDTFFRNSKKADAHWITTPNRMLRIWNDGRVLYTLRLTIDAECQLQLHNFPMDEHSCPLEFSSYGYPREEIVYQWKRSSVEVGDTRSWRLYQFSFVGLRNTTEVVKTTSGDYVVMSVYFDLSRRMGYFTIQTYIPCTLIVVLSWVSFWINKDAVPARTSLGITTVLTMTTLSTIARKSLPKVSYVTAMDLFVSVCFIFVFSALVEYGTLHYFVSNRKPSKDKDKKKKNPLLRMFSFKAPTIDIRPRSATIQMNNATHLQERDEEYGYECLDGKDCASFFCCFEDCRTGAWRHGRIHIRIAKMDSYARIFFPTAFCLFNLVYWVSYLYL
From the text: (§1) Aim: To investigate the effect of 3α-ethynyl-3β-hydroxy-5α-androstan-17-one on the GABAA receptor function both in absence and in presence of the GAMS tetrahydrodeoxycorticosterone (THDOC) by the Dynaflow™ system (Fluicell) on HEK-293 cells recombinantly expressing human α1β2γ2L GABAA receptor or human α3β3γ2 GABAA receptor subtype. In these tests the protocol was optimized to be similar to the physiological conditions in the synaptic cleft.
(§2) Preparation of cell lines: Cell lines permanently expressing a functional human GABAA receptor was made as follows. The GABAA receptor subunits α1β2γ2L or α3β3γ2 including introduced Kozac sequences just before the start codons were subcloned into mammalian expression vectors comprising Geneticin, Hygromycin B, and Zeocin resistance, respectively. A HEK-293 cell line stably expressing the three GABAA receptor subunits (α1β2γ2L, α3β3γ2) separately for α1β2γ2L and α3β3γ2 subunit composition was produced by transfection of the subunits one at a time. The transfection was followed by selection with the appropriate antibiotics, cell separation with the use of subunit specific antibodies (β2 and γ2, Abcam, Upstate/Chemicon/Milipore, Sigma Aldrich), and production of single cell colonies. Produced cell lines were analysed with immunocytochemistry for the three GABAA receptor subunits, followed by selection of a suitable cell line showing for the GABAA receptor normal and good reactivity towards GABA and THDOC.
(§3) HEK-293 cells (obtained from Pasteur Institute, Paris, France), permanently transfected with the human 1β2γ2L or α3β3γ2 GABAA receptor subtypes, were seeded at a density of 3×10^4/25 cm^2 in a culture flask. The transfected cells were used for patch-clamp experiments 3 days after seeding. When using the cells for patch-clamp experiments the cells were washed twice with oxygen-bubbled EC-solution (see below). About 5 mL EC was then added and the cells were kept in the incubator for about 15 minutes. After 15 minutes the cells came loose from the bottom of the flask and were separated by carefully sucking a couple of times with a Pasteur pipette.
(§4) Dynaflow™ system with Resolve chips (Fluicell) was used for all patch-clamp experiments. The DF-16 Proll chips (Fluicell) used have non-sticky inserts for the wells. The channel width was 150 μm and the height 50 μm. The well volume was 280 μL. Run time at the […] is […]. The pump settings were as follow: Omnifix 2 mL syringe with inner diameter of 9.65 mm was used. The syringe pump flow rate for DF-16 Pro II chip was 26 μL/min.
Steroids and GABA: GABA (Sigma Aldrich) was dissolved in EC-solution by ultrasound for about 40 minutes to the concentration of 10 mM in room temperature. All steroids were dissolved to the concentration of 6 mM in DMSO. The DMSO concentration was 0.1% in all end-solutions, including the wash solution (EC) and the solution with GABA alone. End-solutions are the solutions added into the wells of the chip.
Electrophysioloqy: Patch electrodes were pulled from 1.5 mm O.D., 0.86 mm I.D. borosilicate capillary glass without filament. […] The intracellular solution consisted of (in mM): 140 Cs-gluconate, 3.0 NaCl, 1.2 MgCl2, 1.0 EGTA, 10 HEPES. pH was adjusted to 7.2 with CsOH. The extracellular (EC) solution used during recordings contained (in mM): 137 NaCl, 5.0 KCl, 1.0 CaCl2), 1.2 MgCl2, 10 HEPES, 10 glucose. pH was adjusted with NaOH to 7.4. All chemicals in the intracellular and extracellular solutions were obtained from Sigma-Aldrich. After compensating for the liquid junction potential, a steady holding potential of −17 mV was used in all experiments. In physiological conditions the HEK-293 has a resting potential at −40 mV and a low concentration of chloride ions inside the cell. By using the holding potential of −17 mV and the intracellular solution with low chloride ion concentration the chloride ions flux into the cell when the receptors are activated. […]

[3] = system: GABAA receptor; details: taught in WO 09/142594, table 3; cited from earlier work
[4] = target: T2, human α1β2γ2L GABAA receptor (Homo sapiens, UniProt P14867+P18507+P47870); test: Patch-clamp (Dynaflow) of GABA-mediated current in HEK-293 cells expressing α1β2γ2L GABAA receptor; assay type: cell-based
T2 construct: expressed in transfected cells
T2 sequence (P14867 28-456): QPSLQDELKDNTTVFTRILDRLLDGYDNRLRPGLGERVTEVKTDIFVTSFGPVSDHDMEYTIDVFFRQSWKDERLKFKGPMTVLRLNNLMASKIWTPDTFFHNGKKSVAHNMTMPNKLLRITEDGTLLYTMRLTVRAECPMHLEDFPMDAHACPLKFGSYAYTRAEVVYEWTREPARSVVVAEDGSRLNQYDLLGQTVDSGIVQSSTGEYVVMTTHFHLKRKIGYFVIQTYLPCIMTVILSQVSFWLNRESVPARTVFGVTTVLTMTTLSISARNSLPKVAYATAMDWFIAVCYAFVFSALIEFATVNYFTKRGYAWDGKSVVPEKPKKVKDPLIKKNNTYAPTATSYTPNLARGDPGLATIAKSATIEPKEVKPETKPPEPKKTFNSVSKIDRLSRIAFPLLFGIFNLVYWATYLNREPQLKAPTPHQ
T2 sequence (P47870 25-512 limits assumed): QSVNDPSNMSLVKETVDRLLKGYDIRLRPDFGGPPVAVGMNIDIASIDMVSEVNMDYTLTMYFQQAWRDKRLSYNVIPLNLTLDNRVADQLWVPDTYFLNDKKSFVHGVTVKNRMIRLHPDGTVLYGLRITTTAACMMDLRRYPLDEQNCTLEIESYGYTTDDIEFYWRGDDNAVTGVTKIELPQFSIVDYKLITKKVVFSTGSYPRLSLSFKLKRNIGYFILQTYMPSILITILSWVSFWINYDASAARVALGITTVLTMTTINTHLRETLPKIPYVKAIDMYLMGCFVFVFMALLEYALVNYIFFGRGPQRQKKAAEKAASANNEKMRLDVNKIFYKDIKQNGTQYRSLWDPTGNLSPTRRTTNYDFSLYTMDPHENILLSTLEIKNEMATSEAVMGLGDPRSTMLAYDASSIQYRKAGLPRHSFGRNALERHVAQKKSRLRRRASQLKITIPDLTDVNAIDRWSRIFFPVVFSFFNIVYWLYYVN
T2 sequence (P18507 40-475): as the sequence (P18507 40-475) above
From the text: as §1, §2, §3, §4
Steroids and GABA: GABA (Sigma Aldrich) was dissolved in EC-solution by ultrasound for about 40 minutes to the concentration of 10 mM in room temperature. All steroids were dissolved to the concentration of 6 mM in DMSO. […]

[5] = target: α3β2γ2 GABAA receptor subtype (Homo sapiens, UniProt P28472+P34903); test: Patch-clamp (Dynaflow), THDOC on GABA-mediated current at α3β2γ2 receptor subtype; assay type: cell-based; details: 1-1000 nM THDOC 20 s preincubation, 100 μM GABA 1 s, read-out: Emax for effect on GABA mediated current response
α3β2γ2 GABAA receptor subtype, sequence (P34903 29-492): as the sequence (P34903 29-492) above
α3β2γ2 GABAA receptor subtype, sequence (P28472 26-473): as the sequence (P28472 26-473) above
α3β2γ2 GABAA receptor subtype, sequence (P18507 40-475 partner): as the sequence (P18507 40-475) above
Protocol: (§5) Study design: The current response mediated by chloride ion flux through the GABAA receptors expressing the α1β2γ2L, α2β3γ2S, α3β3γ2L, α4β3δ and α5β3γ2L subunit was studied with the use of patch clamp technique combined with the Dynaflow™ application system and the Resolve chip. This provides rapid applications of and removal of substances. The material, protocol and methods were identical to the ones used in Examples 1 and 2. 1 μM 3α-ethynyl-3β-hydroxy-5α-androstan-17-one was studied on GABA mediated current response at α1β2γ2L, α2β3γ2S, α4β3δ and α5β3γ2L GABAA receptor subtypes (FIG. 4, Table 6). In addition, the effect of 1-1000 nM THDOC was studied on GABA mediated current response at the α1β2γ2L, α3β2γ2, and α5β3γ2L receptor subtypes (Table 8). The binding site of THDOC is in the […] region of the receptor. To achieve stable response, the cells were exposed to steroid (THDOC) in 20 seconds before GABA application.
(§6) THDOC: The following standard protocol was used for the different receptor subtypes: • α1β2γ2L: 20 s preincubation of 30-1000 nM THDOC 40 ms application of 30 μM GABA±steroids. • α3β2γ2: 20 s preincubation of 1-1000 nM THDOC followed by 1 s application of 100 μM GABA±steroids. • α5β3γ2L: 20 s preincubation of 30-1000 nM THDOC followed by 6 s application of 0.3 μM GABA±steroids.

[6] = target: T3, human α4β3δ GABAA receptor (Homo sapiens, UniProt O14764+P28472+P48169); test: Patch-clamp (Dynaflow) of GABA-mediated current at α4β3δ GABAA receptor; assay type: cell-based; details: agonist effect
T3 construct: expressed in transfected cells
T3 sequence (P48169 36-554): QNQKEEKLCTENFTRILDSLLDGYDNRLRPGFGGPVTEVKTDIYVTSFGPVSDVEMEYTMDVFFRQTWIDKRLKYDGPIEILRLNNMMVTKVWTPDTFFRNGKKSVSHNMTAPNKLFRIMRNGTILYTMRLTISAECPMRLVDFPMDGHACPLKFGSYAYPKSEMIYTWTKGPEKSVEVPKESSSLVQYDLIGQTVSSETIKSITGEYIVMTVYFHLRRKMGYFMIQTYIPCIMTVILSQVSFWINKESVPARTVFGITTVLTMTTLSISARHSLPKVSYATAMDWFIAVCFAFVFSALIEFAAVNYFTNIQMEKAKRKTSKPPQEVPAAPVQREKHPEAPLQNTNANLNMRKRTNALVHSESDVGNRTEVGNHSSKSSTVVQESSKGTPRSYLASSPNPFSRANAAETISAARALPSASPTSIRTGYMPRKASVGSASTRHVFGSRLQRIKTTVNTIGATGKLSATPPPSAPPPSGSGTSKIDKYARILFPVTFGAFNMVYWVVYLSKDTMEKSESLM
T3 sequence (P28472 26-473): as the sequence (P28472 26-473) above
T3 sequence (O14764 17-452 limits assumed): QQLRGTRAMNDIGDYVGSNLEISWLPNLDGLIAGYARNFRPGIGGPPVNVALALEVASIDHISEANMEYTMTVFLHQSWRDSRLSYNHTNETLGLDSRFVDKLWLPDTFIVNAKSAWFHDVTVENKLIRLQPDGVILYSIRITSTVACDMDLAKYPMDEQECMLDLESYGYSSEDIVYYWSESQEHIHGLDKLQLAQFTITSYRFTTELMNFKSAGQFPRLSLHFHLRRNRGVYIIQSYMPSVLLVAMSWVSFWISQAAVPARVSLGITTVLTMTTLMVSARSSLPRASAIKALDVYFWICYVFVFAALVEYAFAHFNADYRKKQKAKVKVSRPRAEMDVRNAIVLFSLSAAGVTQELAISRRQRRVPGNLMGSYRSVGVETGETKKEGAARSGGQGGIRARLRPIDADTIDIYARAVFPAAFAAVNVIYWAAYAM
From the text: (§7) Aim: the aim of this project was to study the effect of 3α-ethynyl-3β-hydroxy-5α-androstan-17-one and the positive GABAA receptor modulator THDOC on GABA-mediated current response, at human α1β2γ2L, α2β3γ2S, α4β3δ and α5β3γ2L subunit GABAA receptors.
as §5
(§8) The amount GABA used depends on the receptor subtype intra or extra-synaptic type, α1β2γ2L=30 μM; α2β3γ2S=45 μM; α4β3δ=1 μM and α5β3γ2L=0.3 μM GABA.

[7] = target: T4, human α5β3γ2L GABAA receptor (Homo sapiens, UniProt P18507+P28472+P31644); test: Patch-clamp (Dynaflow) of GABA-mediated current at α5β3γ2L GABAA receptor; assay type: cell-based
T4 construct: expressed in transfected cells
T4 sequence (P31644 32-462): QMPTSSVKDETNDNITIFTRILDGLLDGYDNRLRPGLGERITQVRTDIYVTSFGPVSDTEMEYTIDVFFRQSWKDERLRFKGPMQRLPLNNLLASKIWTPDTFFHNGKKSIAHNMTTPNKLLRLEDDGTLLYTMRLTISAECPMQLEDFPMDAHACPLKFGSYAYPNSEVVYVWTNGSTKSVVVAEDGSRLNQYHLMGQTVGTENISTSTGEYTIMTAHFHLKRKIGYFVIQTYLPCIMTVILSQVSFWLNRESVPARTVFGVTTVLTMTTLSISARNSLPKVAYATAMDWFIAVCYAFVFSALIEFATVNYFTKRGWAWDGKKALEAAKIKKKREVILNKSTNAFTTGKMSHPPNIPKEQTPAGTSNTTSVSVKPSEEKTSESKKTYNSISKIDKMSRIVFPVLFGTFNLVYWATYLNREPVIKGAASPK
T4 sequence (P28472 26-473): as the sequence (P28472 26-473) above
T4 sequence (P18507 40-475): as the sequence (P18507 40-475) above
From the text: as §7, §5, §8, §6

[8] = 1 mg/kg s.c. + 5 mg/kg progesterone + 10 μg/kg 17β-estradiol
[9] = 5 mg/kg s.c. + 5 mg/kg progesterone + 10 μg/kg 17β-estradiol

C#C[C@]1(O)CC[C@@]2(C)[C@@H](CC[C@@H]3[C@@H]2CC[C@]2(C)C(=O)CC[C@@H]32)C1 [3α-ethynyl-3β-hydroxy-5α-androstan-17-one]
Weight difference compared to vehicle (Mean±SE) [1, 8]: -33 ± 4.4 g | Weight difference versus E+P control rats (Mean±SE) [1, 8]: -23.9 ± 4.4 g | Weight difference compared to vehicle (Mean±SE) [1, 9]: -29.6 ± 5.2 g | Weight difference versus E+P control rats (Mean±SE) [1, 9]: -20.4 ± 5.2 g | Difference in weight after 10 days of treatment compared to vehicle ([1]; s.c., 10 days of treatment): over 20% | Effect on 100 μM GABA-mediated current response, Mean ± SEM % ([2]; 0.003 μM compound + 100 μM GABA, α3β3γ2L): +2.5 ± 2.9% | Own effect, Baseline shift ([2]; 0.003 μM compound, absence of GABA, α3β3γ2L): −1.0 ± 0.4 pA | Effect on 100 μM GABA-mediated current response, Mean ± SEM % ([2]; 0.01 μM compound + 100 μM GABA, α3β3γ2L): −3.0 ± 2.3% | Own effect, Baseline shift ([2]; 0.01 μM compound, absence of GABA, α3β3γ2L): −0.7 ± 0.7 pA | Effect on 100 μM GABA-mediated current response, Mean ± SEM % ([2]; 0.03 μM compound + 100 μM GABA, α3β3γ2L): −2.0 ± 1.0% | Own effect, Baseline shift ([2]; 0.03 μM compound, absence of GABA, α3β3γ2L): −0.8 ± 1.2 pA | Effect on 100 μM GABA-mediated current response, Mean ± SEM % ([2]; 0.1 μM compound + 100 μM GABA, α3β3γ2L): −4.0 ± 3.0% | Own effect, Baseline shift ([2]; 0.1 μM compound, absence of GABA, α3β3γ2L): −1.0 ± 0.8 pA | Effect on 100 μM GABA-mediated current response, Mean ± SEM % ([2]; 0.3 μM compound + 100 μM GABA, α3β3γ2L): −10% and −10 ± 2.3% | Own effect, Baseline shift ([2]; 0.3 μM compound, absence of GABA, α3β3γ2L): +0.9 ± 0.5 pA | Own effect, Baseline shift ([2]; 1 μM compound, absence of GABA, α3β3γ2L): −1.2 ± 0.5 pA | Effect on 100 μM GABA-mediated current response, Mean ± SEM % ([2]; 3 μM compound + 100 μM GABA, α3β3γ2L): −74 ± 0.9% | Own effect, Baseline shift ([2]; 3 μM compound, absence of GABA, α3β3γ2L): −0.4 ± 0.4 pA | Effect on 100 μM GABA-mediated current response, Mean ± SEM % ([2]; 10 μM compound + 100 μM GABA, α3β3γ2L): −76 ± 1.9% | Own effect, Baseline shift ([2]; 10 μM compound, absence of GABA, α3β3γ2L): +1.1 + 2.4 pA | Activation of the α3β3γ2L GABAA receptor in absence of GABA ([2]; 0.003-10 μM, absence of GABA): do not activate | Imax on 100 μM GABA-mediated current response ([2]; 0.003-10 μM, best fit curve, α3β3γ2L): −78% | IC50 ([2]; 0.003-10 μM, best fit curve, α3β3γ2L, read-out: IC50 on 100 μM GABA-mediated current response): 800 nM | Effect as a GAMSA or GAMS [3]: no effect | Antagonism of 100 nM THDOC-enhancement at α1β2γ2 ([4]; 1 μM compound + THDOC + GABA): no significant agonistic or antagonistic effect; also recorded: No effect

C[C@]12CC[C@@H](O)C[C@@H]1CC[C@@H]1[C@@H]2CC[C@]2(C)[C@@H](C(=O)CO)CC[C@@H]12 [THDOC, 3α, 21-dihydroxy-5α-pregnan-20-one]
Emax [5]: 80% | Effect on GABA-mediated current at α4β3δ (in words) [6]: significantly enhances | Effect on GABA-mediated current at α5β3γ2L (in words) ([7]; agonist effect): significantly enhances | EC50 ([7]; α5β3γ2L, 30-1000 nM THDOC 20 s preincubation, 0.3 μM GABA 6 s, read-out: EC50 for effect on GABA mediated current response): 68 nM | Emax ([7]; α5β3γ2L, 30-1000 nM THDOC 20 s preincubation, 0.3 μM GABA 6 s, read-out: Emax for effect on GABA mediated current response): 131% | Emax ([4]; HEK293, α1β2γ2L, 30-1000 nM THDOC 20 s preincubation, 30 μM GABA 40 ms, read-out: Emax for effect on GABA mediated current response): 115% | Effect on GABA-mediated current at α1β2γ2L (in words) ([4]; agonist effect): significantly enhances | EC50 ([4]; α1β2γ2L, 30-1000 nM THDOC 20 s preincubation, 30 μM GABA 40 ms, read-out: EC50 for effect on GABA mediated current response): 70 nM

Source: US20260158043A1, “STEROID AS A MODULATOR OF GABAA RECEPTOR” (UMECRINE COGNITION AB, priority 2021, published 2026)
